In US12599585B2, “Use of [(1R)-1-(2-chlorophenyl)-2-(tetrazol-2-yl)ethyl] carbamate in combination therapy” (priority 2018, dated 2026):

Columns and labels:
[1] = population pharmacokinetic (PopPK) modeling and simulation of the cenobamate effect on concomitant AED concentrations in subjects with partial onset seizures; assay type: in vivo, human; details: cenobamate dose 100-400 mg/day
Method: This study was carried out to make an assessment of the extent to which the adjunctive treatment with cenobamate may affect the recommended dosing of other AEDs. Population pharmacokinetics (PopPK) models describing how cenobamate exposure affects that of other commonly used AEDs (i.e., carbamazepine, lamotrigine, levetiracetam, oxcarbazepine, phenytoin and valproic acid) when given as adjunct therapy.
Therapeutically effective amount for AEDs are different depending on the condition of subjects participated in the study. For carbamazepine, therapeutically effective amount was about 800 mg/day to about 1,200 mg/day for adults and children over 12 years of age. For lamotrigine, therapeutically effective amount was about 100 mg/day to about 500 mg/day, preferably about 100 mg/day to 200 mg/day, for adults and children over 12 years of age. For levetiracetam, therapeutically effective amount was about 3,000 mg/day for adults and children over 12 years of age. For phenytoin, therapeutically effective amount was about 300 mg/day to about 600 mg/day for adults. For valproic acid, therapeutically effective amount was about 60 mg/kg/day for adults.
PopPk datasets were constructed from clinical databases for Cenobamate Study 1, Cenobamate Study 2 and Cenobamate Study 3. The dosing, exposure, covariate and AED concentration data were merged by subject, date, and time; formatted for PopPK analysis and saved in ASCII format using R software (Version 3.2.2, Comprehensive R Network, cran.r-project.org). All data programs were documented and archived in a locked on-line repository in order to maintain an audit trail. A quality control (QC) check of the data management procedure was conducted according to qPharmetra standard operating procedures (SOPs).
Results from Cenobamate Study 1, Cenobamate Study 2 and Cenobamate Study 3 were included in the analyses. Each study is described in more detail in the subsequent sections.
This is a multicenter, double-blind, randomized, adjunctive placebo-controlled trial with an open-label extension phase to evaluate the efficacy and safety of cenobamate in subjects with treatment resistant partial onset seizures. Subjects with partial onset seizures not fully controlled despite their treatment with 1 to 3 concomitant AEDs were included in this study. The study included an 8 week baseline period to assess seizure frequency. Only subjects who experienced at least 3 seizures/month during the baseline period with no 21-day seizure-free period were randomized in a 1:1 ratio to add-on placebo or cenobamate administered in an oral formulation once daily in the morning. Subjects then entered a 12-week double-blind treatment period, consisting of a 6-week titration phase followed by a 6-week maintenance phase. In maintenance phase, the dose was 200 mg/day. Blood samples were drawn at the baseline, predose at the start of the titration phase, and on days 15, 29, 43, 57 and 85 after the first dose during the double-blinded treatment period. These samples were analyzed for lamotrigine, levetiracetam, oxcarbazepine, carbamazepine, and valproic acid.
This is a multicenter, double-blind, randomized, placebo-controlled dose-response study, with an 8-week prospective baseline and an 18-week double-blind treatment period. Subjects must have had least 8 partial seizures including only simple partial seizures with motor component, complex partial seizures, or secondarily generalized seizures without a seizure-free interval of greater than 25 days any time during the 8-week baseline despite their treatment with 1 to 3 AEDs. Subjects must have had at least 3 of these partial seizures during each of the two consecutive 4-week periods in the baseline period to be randomized to 100, 200 or 400 mg/day cenobamate or placebo (1:1:1:1 ratio) administered as a tablet formulation once daily in the morning. Subjects first entered a 6-week titration followed by a 12-week maintenance phase. […]

[2] = open-label multiple dose PK drug-interaction studies of cenobamate co-administered with AEDs; assay type: in vivo, human
Method: This study was carried out to assess the effect of cenobamate on the disposition of four AEDs (divalproex sodium, phenobarbital, phenytoin and carbamazepine) and the effect of four AEDs on the disposition of cenobamate. The details are described below.
Five open-label, multiple dose, multiple period, 1 sequence, PK drug-interaction studies were conducted examining co-administration of cenobamate and each of the above-mentioned AEDs. Specifically, five studies were conducted, as follows:
This is an open-label, multiple-dose, 1 sequence, 3 period pharmacokinetic drug interaction study between cenobamate and divalproex in normal volunteer subjects. Sixteen subjects were enrolled. All subjects were scheduled to undergo 3 treatment periods as a 1 sequence design: • Period 1 (Days 1 to 5): Single oral daily administration of 1000 mg divalproex (Treatment A). • Period 2 (Days 6 to 19): Co-administration of single oral daily administration of 1000 mg divalproex and 150 mg cenobamate (Treatments A and B). • Period 3 (Days 20 to 25): Single oral daily administration of 150 mg cenobamate (Treatment B). (Number of Subjects Planned: 16 Enrolled: 16 Analyzed: 16) Study 2—Phenobarbital
This is an open-label, 1-arm, 2-treatment study. Sixteen (16) healthy, adult, non-tobacco using, male and female subjects were enrolled. Screening of subjects occurred within 28 days prior to the first dose. A total of 16 subjects were enrolled in the study, and 14 subjects completed the study. The PK dataset therefore included 16 subjects for phenobarbital alone and 14 subjects for the combination treatment. There were 16 subjects included in the safety analyses.
Treatment A subjects received 30 mg phenobarbital TID on Days 1 to 7, followed by 90 mg phenobarbital QD in the morning on Days 8 to 21. All study drugs were administered orally with approximately 240 mL of water.
Treatment B subjects received 90 mg phenobarbital QD in the morning from Days 22 to 56 co-administered with 50 mg cenobamate QD on Days 22 to 28, 100 mg cenobamate QD on Days 29 to 35, 150 mg cenobamate QD on Days 36 to 42, and 200 mg cenobamate QD on Days 43 to 56. All study drugs were administered orally with approximately 240 mL of water. The study duration was approximately 13 weeks from screening to end-of-study procedures. There was approximately 17 weeks from screening to attempted follow-up phone call. There was no washout. […]
Blood samples were obtained prior to and following dosing at selected times through 24 hours postdose on selected days (Days 14, 28, and 70). Plasma samples were analyzed for phenytoin and cenobamate concentrations using validated analytical methods. Appropriate PK parameters were calculated for each treatment using non-compartmental methods. […]

[3] = combination therapy with phenytoin vs cenobamate alone (FIG. 3)
[4] = combination therapy with cenobamate vs AED alone (FIG. 2)

In the case of `NC(=O)N1c2ccccc2C=Cc2ccccc21` [Carbamazepine, carbamazepine], the “Effect on AED Concentration (AUC): Reduction by” value (from here on “Effect … Reduction by”) [1] is reported as “Reduction by 11-34%”.
In the case of `Nc1nnc(-c2cccc(Cl)c2Cl)c(N)n1` [Lamotrigine, lamotrigine], the “Effect … Reduction by” value [1] is reported as “Reduction by 21-52%”.
With `CC[C@@H](C(N)=O)N1CCCC1=O` [Levetiracetam, levetiracetam] the “Effect … Reduction by” value [1] was “Reduction by 4-13%”.
In the case of `NC(=O)N1c2ccccc2CC(=O)c2ccccc21` [Oxcarbazepine, oxcarbazepine], the “Effect on AED Concentration (AUC): Increase by” value [1] is reported as “Increased by 10%”.
In the case of `O=C1NC(=O)C(c2ccccc2)(c2ccccc2)N1` [Phenytoin, phenytoin], the “Effect on AED Concentration (AUC): Increase by” value [1] is reported as “Increase by 10-60%”.
For `CCCC(CCC)C(=O)O` [Valproic acid, valproic acid], the “Effect … Reduction by” value [1] was “Reduction by 5-19%”.
For `NC(=O)O[C@@H](Cn1ncnn1)c1ccccc1Cl` [cenobamate, [(1R)-1-(2-chlorophenyl)-2-(tetrazol-2-yl)ethyl] carbamate], the “plasma AUC for cenobamate” value [2, 3] was “decreased” and the “plasma Cmax for cenobamate” value [2, 3] was “decreased”.
In the case of `CCC1(c2ccccc2)C(=O)NC(=O)NC1=O` [phenobarbital], the “plasma AUC of the AED” value [2, 4] is reported as “increased” and the “plasma Cmax of the AED” value [2, 4] is reported as “increased”.
